Data from US20040229960A1, “Compositions and methods of administering tubulin binding agents for the treatment of ocular diseases” (priority 2001, published 2004).

Legend:
pathological myopia = assay: Human patient with pathological myopia, phase I/II study; format: in vivo
From the text: A person was originally examined on Day One after complaining of visual obstructions in their left eye. The patient had received ocular lens implants in both eyes approximately 2 years earlier to correct for myopia. The patient was diagnosed with pathological myopia (also known as proliferative myopathy and myopic macular degeneration) and received a total of four treatments of Photodynamic Therapy (PDT, Visudyne™) in the left eye over the course of the next 8 months. […] In June 2003, the patient was diagnosed with pathological myopia in the right eye as well.
About 3 months later, the patient was enrolled in an open-label, pilot (phase I/II), dose-escalation safety and tolerability study of CA4P. At that time, the patient's best corrected visual acuity was 20/50-3 in the left eye and 20/25-3 in the right eye, as determined by a Snellen back-lit visual acuity test. […] On Day One of the study, the patient began treatment with an intravenous infusion of CA4P (free acid), at a dose of 27 mg/m2, over a 10 minute period. […] The patient received second, third, and fourth infusions of CA4P on Days 8, 15, and 22 of the study, with a maintenance of visual acuity and no active leakage in either eye.

retinoblastoma = assay: Murine transgenic model of retinoblastoma, subconjunctival treatment; format: in vivo, SV-40 Large T antigen positive mice
Procedure: A murine transgenic model of retinoblastoma was used in which SV-40 Large T antigen positive mice develop bilateral retinoblastoma resembling human pediatric retinoblastoma. In this model, tumors first appear at 4 weeks of age and develop in a stable and reproducible manner (Hayden et al., Arch Ophthalmol. 2002;120(3):353-9). In one experiment, 12-week old animals (n=48) were treated with a single 20 ul subconjunctival injection of CA4P (100 mg/ml) in the right eye only. Control mice (n=8) were treated with a balanced salt solution (“BSS”). Eyes were sampled by enucleation at Days 1, 3, 7, 14, 21, and 28 post treatment (n=8 eyes per sample). Samples were fixed, paraffin embedded, serially sectioned, and stained with heometoxylin, eosin, and PAS prior. Each tissue sample was examined for histopathological tumor vascular response.
In a separate dosing experiment, animals (n=48) were treated with 6 serial biweekly subconjunctival injections of CA4P, at concentrations of 100, 10, 1, 0.1 or 0.01 mg/ml in a volume of 20 ul (n=6 eyes per sample). A control group (n=6) received serial subconjunctival injections of BSS. Eyes were enucleated at 28 days post-treatment and examined for tumor volume reduction. FIG. 5B illustrates the dose-dependent effect of CA4P on tumor vascular volume in comparison to control.

[1] = tested on: choroidal neovascularization; assay: Krypton laser murine model of choroidal neovascularization; format: in vivo, C57BL/6J mouse; conditions: for Average Vessel Lumen Area: vehicle 0.0129886
Procedure: Choroidal neovascularization is a major cause of severe vision loss in patients with age-related or wet macular degeneration. To investigate the capacity of CA4P to inhibit vascular growth in the choroids, a murine model of Choroidal Neovascularization was tested. In this model the investigator used a krypton laser to create a wound on the Bruch's membrane of a C57BL/6J mouse. Each eye received several burns. The burn elicited a classic wound-healing response that included neovascularization within the choroid. This krypton laser photocoagulation method has been described in Tobe et al., Am. J. of Pathology, 1998, 153(5):1641-6. […] Histopathology and fluorescein angiography were used to identify neovascularization surrounding the burn. Electron microscopy was used to measure the lumen diameter of fenestrated neovasculature within the choroidal neovascular lesions. Table 12 illustrates the results of CA4P treatment on the average vessel lumen area.

[2] = Biodistribution of 14C-CA4P following intravitreal injection; format: in vivo, New Zealand rabbits
Procedure: ^14C-CA4P (OXiGENE Inc., Watertown, Mass.) was resuspended in 100 ul volume of saline solution and injected with a 30 G needle into the right eyes of anesthesized male New Zealand rabbits (4 months old, 1.8-2.5 kg, n=3 per sample). Three different concentrations of ^14C-CA4P were tested (1, 10, 100 mg/ml) corresponding to doses of 1, 5, and 5 uCi of applied radioactivity respectively. A blank control group was also included. Rabbits were anaesthetized at 1, 6, 24, and 48 hours for blood sampling. After blood collection, the animals were euthanized by Phenobarbital injection and the treated right eyes were removed from all test animals. Ocular tissue samples were dissected from the cornea, aqueous humor, vitreous humor, choroid, or retina, placed in 20-mi glass scintillation vials, vortexed, and incubated for 24 hrs with 500 ul digesting fluid. Plasma was separated from whole blood by centrifugation (1,800 g for 10 minutes). Both ocular tissue samples and plasma were incubated at room temperature with 16 ml of Hionic Fluor™ scintillation fluid for a period of 24 hours prior to radioactivity counting. Each sample was counted for 5 minutes in a Betamatic V counter (Bio-Tek Kontron Instruments, St Quentin en Yvelines, France). The conversion of counts per minute (“cpm”) into disintegrations per minute (“dpm”) was performed automatically by the beta-counter, using calibration curves obtained from ^14C-standards and quenching curves from the respective blank matrices spiked with ^14C-standards. The concentration of drug was determined according to nanogram equivalents of CA4P (ng-Eq/g of tissue) which was calculated from the measured dpm value, the weight of the tissue specimen, and the specific activity of the drug (0.37 mCi/mg), followed by subtraction of the corresponding background value from control eye tissue. A tissue concentration of 1 uM CA4P is equal to […] tissue.

COc1ccc(/C=C\c2cc(OC)c(OC)c(OC)c2)cc1OP(=O)([O-])[O-].[Na+].[Na+] [CA4P, combretastatin A4 disodium phosphate]
Improvement of Snellen visual acuity, left eye (pathological myopia; 27 mg/m2 i.v. weekly): improved by five lines to 20/20 vision | Leakage in fluorescein angiography of either eye (pathological myopia; Day 8 after 27 mg/m2 i.v. infusion, active leakage in both eyes at baseline): No active leakage was observed | Intratumoral vascularity (retinoblastoma; 6 serial biweekly subconjunctival injections, dose levels above 10 mg/ml, 28 days post-treatment): No intratumoral vascularity was present | Toxicity (retinoblastoma; any time point or treatment dose (0.01-100 mg/ml subconjunctival)): no evidence of toxicity was noted | Intratumoral vascularization (retinoblastoma; single 20 ul subconjunctival injection, 100 mg/ml, Days 1, 3 and 7): significant reduction in intratumoral vascularization | Average Vessel Lumen Area ([1]; 10 mg/kg): 0.01186 mm^2 | Average Vessel Lumen Area ([1]; 20 mg/kg): 0.01101 mm^2 | Average Vessel Lumen Area ([1]; 100 mg/kg IP): 0.007612 mm^2 | Less vascular lumen area compared to saline ([1]; 100 mg/kg/day IP): approximately 50% | Cmax ([2]; aqueous humor, 1 mg/ml intravitreal): 0.15 µM | Cmax ([2]; aqueous humor, 10 mg/ml intravitreal): 0.79 µM | Cmax ([2]; aqueous humor, 100 mg/ml intravitreal): 460 µM | Cmax ([2]; cornea, 1 mg/ml intravitreal): 95 µM | Cmax ([2]; cornea, 10 mg/ml intravitreal): 969 µM | Cmax ([2]; cornea, 100 mg/ml intravitreal): 5870 µM | Time of highest concentrations of drug in the eye ([2]; intravitreal injection): within the first hour | Cmax ([2]; plasma, 1 mg/ml intravitreal): 0.4 µM | Cmax ([2]; plasma, 10 mg/ml intravitreal): 0.2 µM | Cmax ([2]; plasma, 100 mg/ml intravitreal): 0.78 µM | Cmax ([2]; retina, 1 mg/ml intravitreal): 160 µM | Cmax ([2]; retina, 10 mg/ml intravitreal): 1980 µM | Cmax ([2]; retina, 100 mg/ml intravitreal): 10700 µM | Concentration of drug delivered ([2]; retina, all concentrations tested, intravitreal): > 1 µM | Cmax ([2]; sclera, 1 mg/ml intravitreal): 19 µM | Cmax ([2]; sclera, 10 mg/ml intravitreal): 153 µM | Cmax ([2]; sclera, 100 mg/ml intravitreal): 16100 µM | Cmax ([2]; vitreous, 1 mg/ml intravitreal): 75 µM | Cmax ([2]; vitreous, 10 mg/ml intravitreal): 757 µM | Cmax ([2]; vitreous, 100 mg/ml intravitreal): 10000 µM
